Where only a bound is given, the exact number is not on record here.

The test system of one data set is EKVX. Nature of the data set: NCI primary anti-cancer assay (SRB), EKVX. In kind it is cell-based. As to conditions: Homo sapiens; 10^−5M; Non-Small Cell Lung Cancer EKVX; read-out: Growth Inhibition %. The procedure:
(§1) Evaluation of anti-cancer activities on pyrimido[4,5-d]pyrimidine derivatives were performed at the National Cancer Institute (NCI) USA. First the newly synthesized compounds have been evaluated in primary anti-cancer assay at 10^−5M concentration against 60 human tumor cell lines then the active compounds were tested at 5 different concentrations against the same 60 human tumor cell lines. The biological data for the newly synthesized compounds are compiled in table 2
(§2) The cytotoxic activity was measured in vitro for the newly synthesized compounds using the SulfoRhodamine-B stain (SRB) assay using the method of Skehan. Cells were plated in 96-multiwell microtiter plate (10^4 cells/well) for 24 h before treatment with the compound(s) to allow attachment of cell to the wall of the plate. Tested compounds were dissolved in DMSO and diluted with saline to the appropriate volume. Triplicate wells were prepared for each individual dose. Monolayer cells were incubated with the compound(s) for 48 h at 37 °C and in atmosphere of 5% CO2. After 48 h, cells were fixed, washed, and stained for 30 min with 0.4% (wt/vol) with SRB dissolved in 1% acetic acid. Unbound dye was removed by four washes with 1% acetic acid, and attached stain was recovered with Tris-EDTA buffer. Color intensity was measured in an ELISA reader. […]

A further data set has as its target T1, CDK2/CyclinA (Homo sapiens, UniProt P24941).
T1 construct: hexa-histidine (N); made in house; host or cells: sf21 insect cells (baculovirus)
Briefly: CDK2/cyclinA enzymatic activity inhibition assay (32P-ATP, histone H1). In kind it is biochemical. The note with it: mean of at least two independent experiments.

Another data set concerns K-562. Briefly: NCI primary anti-cancer assay (SRB), K-562. In kind it is cell-based. As to conditions: Homo sapiens, K562; 10^−5M; Leukemia K-562; read-out: Growth Inhibition %. As to the method: as §1
(§3) The cytotoxic activity was measured in vitro for the newly synthesized compounds using the SulfoRhodamine-B stain (SRB) assay using the method of Skehan. Cells were plated in 96-multiwell microtiter plate (10^4 cells/well) for 24 h before treatment with the compound(s) to allow attachment of cell to the wall of the plate. Tested compounds were dissolved in DMSO and diluted with saline to the appropriate volume. Triplicate wells were prepared for each individual dose. Monolayer cells were incubated with the compound(s) for 48 h at 37 °C and in atmosphere of 5% CO2. After 48 h, cells were fixed, washed, and stained for 30 min with 0.4% (wt/vol) with SRB dissolved in 1% acetic acid. Unbound dye was removed by four washes with 1% acetic acid, and attached stain was recovered with Tris-EDTA buffer. Color intensity was measured in an ELISA reader. The relation between surviving fraction and drug concentration is plotted to get the survival curve for tumor cell line after the specified time.

The test system of a further data set is HOP-92. Briefly: NCI primary anti-cancer assay (SRB), HOP-92. In kind it is cell-based. As to conditions: Homo sapiens; 10^−5M; Non-Small Cell Lung Cancer HOP-92; read-out: Growth Inhibition %. The procedure:
as §1, §3

Another data set concerns SF-539. Briefly: NCI primary anti-cancer assay (SRB), SF-539. In kind it is cell-based. As to conditions: Homo sapiens; 10^−5M; CNS Cancer SF-539; read-out: Growth Inhibition %. As to the method: as §1, §3
Another data set concerns HL-60(TB). Briefly: NCI primary anti-cancer assay (SRB), HL-60(TB). Format: cell-based. As to conditions: Homo sapiens; 10^−5M; Leukemia HL-60(TB); read-out: Growth Inhibition %. The procedure: as §1, §3
Data set [1] deals with T2, human EGFR tyrosine kinase domain (Homo sapiens, UniProt P00533).
T2 construct: C-terminal human EGFR tyrosine kinase domain
T2 sequence (P00533 712-979 limits assumed): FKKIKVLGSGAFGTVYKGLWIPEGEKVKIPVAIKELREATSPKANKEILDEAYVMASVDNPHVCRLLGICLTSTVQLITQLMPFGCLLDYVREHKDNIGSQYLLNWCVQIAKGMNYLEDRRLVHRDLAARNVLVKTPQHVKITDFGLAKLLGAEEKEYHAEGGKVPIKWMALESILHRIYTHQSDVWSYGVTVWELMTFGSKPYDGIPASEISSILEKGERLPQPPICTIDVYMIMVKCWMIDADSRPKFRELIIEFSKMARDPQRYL
Nature of the data set: EGFR tyrosine kinase inhibition assay. As to conditions: mean of at least two independent experiments. In kind it is biochemical.

For data set [2], the system named is 60 human tumor cell lines. Briefly: NCI primary anti-cancer assay, summary over tumor cell lines. As to conditions: 10^−5M, Non-small cell lung cancer, Ovarian cancer, Leukemia and Melanoma lines / different tumor cell lines, read-out: growth inhibitions (range over cell lines). Format: cell-based. The procedure: as §1, §3
The next data set concerns the target CDK4/CyclinD (Homo sapiens, UniProt P11802). Briefly: CDK4/CyclinD inhibition assay. Format: biochemical. The note with it: mean of at least two independent experiments.
A further data set has as its system RPMI-8226. Briefly: NCI primary anti-cancer assay (SRB), RPMI-8226. The note with it: Homo sapiens; 10^−5M; Leukemia RPMI-8226; read-out: Growth Inhibition %. In kind it is cell-based. The procedure: as §1, §3
A further data set concerns MDA-MB-231/ATCC. Briefly: NCI primary anti-cancer assay (SRB), MDA-MB-231/ATCC. In kind it is cell-based. As to conditions: Homo sapiens; 10^−5M; Breast Cancer MDA-MB-231/ATCC; read-out: Growth Inhibition %. As to the method: as §1, §3
In another data set the test system is MOLT-4. Briefly: NCI primary anti-cancer assay (SRB), MOLT-4. Format: cell-based. The note with it: Homo sapiens; 10^−5M; Leukemia MOLT-4; read-out: Growth Inhibition %. As to the method:
as §1, §3

For another data set, the system named is HS 578T. Nature of the data set: NCI primary anti-cancer assay (SRB), HS 578T. In kind it is cell-based. As to conditions: Homo sapiens; 10^−5M; Breast Cancer HS 578T; read-out: Growth Inhibition %. The procedure:
as §1, §3

In a further data set the test system is MCF7. Briefly: NCI primary anti-cancer assay (SRB), MCF7. In kind it is cell-based. The note with it: Homo sapiens; 10^−5M; Breast Cancer MCF7; read-out: Growth Inhibition %. The procedure: as §1, §2
The test system of the next data set is OVCAR-8. Briefly: NCI primary anti-cancer assay (SRB), OVCAR-8. Format: cell-based. As to conditions: Homo sapiens; 10^−5M; Ovarian Cancer OVCAR-8; read-out: Growth Inhibition %. As to the method:
as §1, §3

For the next data set, the system named is IGROV1. Nature of the data set: NCI primary anti-cancer assay (SRB), IGROV1. In kind it is cell-based. As to conditions: Homo sapiens, IGROV-1; 10^−5M; Ovarian Cancer IGROV1; read-out: Growth Inhibition %. As to the method:
as §1, §3

For another data set, the system named is BT-549. Briefly: NCI primary anti-cancer assay (SRB), BT-549. In kind it is cell-based. As to conditions: Homo sapiens; 10^−5M; Breast Cancer BT-549; read-out: Growth Inhibition %. As to the method:
as §1, §2

A further data set has as its system UO-31. Nature of the data set: NCI primary anti-cancer assay (SRB), UO-31. In kind it is cell-based. As to conditions: Homo sapiens; 10^−5M; Renal Cancer UO-31; read-out: Growth Inhibition %. As to the method: as §1, §3
Another data set deals with A549/ATCC. Nature of the data set: NCI primary anti-cancer assay (SRB), A549/ATCC. Format: cell-based. As to conditions: Homo sapiens; 10^−5M; Non-Small Cell Lung Cancer A549/ATCC; read-out: Growth Inhibition %. As to the method:
as §1, §3

In another data set the test system is UACC-257. Nature of the data set: NCI primary anti-cancer assay (SRB), UACC-257. Format: cell-based. The note with it: Homo sapiens; 10^−5M; Melanoma UACC-257; read-out: Growth Inhibition %. The procedure: as §1, §3

Sequence of CDK4/CyclinD (P11802 whole entry, species assumed): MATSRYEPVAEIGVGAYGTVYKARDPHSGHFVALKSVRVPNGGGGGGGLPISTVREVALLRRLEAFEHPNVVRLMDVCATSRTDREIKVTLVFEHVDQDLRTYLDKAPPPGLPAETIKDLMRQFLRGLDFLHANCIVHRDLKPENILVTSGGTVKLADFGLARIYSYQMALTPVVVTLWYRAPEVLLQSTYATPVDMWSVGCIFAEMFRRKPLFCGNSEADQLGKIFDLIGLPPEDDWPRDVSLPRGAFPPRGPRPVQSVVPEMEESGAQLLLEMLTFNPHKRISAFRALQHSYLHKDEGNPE
Sequence of CDK4/CyclinD (P24385 whole entry partner, species assumed): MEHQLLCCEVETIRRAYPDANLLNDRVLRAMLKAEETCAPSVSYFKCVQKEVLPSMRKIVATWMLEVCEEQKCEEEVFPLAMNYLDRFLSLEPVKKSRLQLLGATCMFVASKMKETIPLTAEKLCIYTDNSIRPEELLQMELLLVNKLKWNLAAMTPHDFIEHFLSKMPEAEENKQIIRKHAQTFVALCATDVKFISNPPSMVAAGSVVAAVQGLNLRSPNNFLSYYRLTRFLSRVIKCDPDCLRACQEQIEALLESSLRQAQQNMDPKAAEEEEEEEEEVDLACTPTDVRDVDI

For `Cc1nc(Nc2ccc(NC(=S)Nc3ccccc3)cc2)nc2nc(NCc3ccccc3)[nH]c(=O)c12` [Compound 7b, 1-(4-{[7-(Benzylamino)-4-methyl-5-oxo-5,6-dihydropyrimido[4,5-d]pyrimidin-2-yl]amino}-phenyl)-3-phenylthiourea], the melting point is more than 300 °C. Moreover, in the data set with EKVX, the inhibition at 10 µM was found to be 28.5%. Inhibition at CDK2/CyclinA was half-maximal at 0.86 µM (IC50). Further, in the data set on K-562, the inhibition at 10 µM was 53.7%. Also, in the data set with HOP-92, the inhibition at 10 µM stood at 20.8%. The inhibition at 10 µM in the data set on SF-539 was 42%. In addition, the inhibition at 10 µM with HL-60(TB) is 24.5%. In [1], the IC50 was more than 10 µM. The inhibition at 10 µM in [2] is 50 to 70%. At CDK4/CyclinD, this molecule registered an IC50 of 4.85 µM. The inhibition at 10 µM with RPMI-8226 was determined as 50.2%. Further, in the data set on MDA-MB-231/ATCC, the inhibition at 10 µM was 31.5%. Also, the inhibition at 10 µM in the data set on MOLT-4 is 32.9%. For the same molecule, in the data set on HS 578T, the inhibition at 10 µM worked out at 33.6%. Further, in the data set on MCF7, the inhibition at 10 µM is 43.5%.

Take `Cc1cc(C)nc(NS(=O)(=O)c2ccc(Nc3nc(-c4ccc(O)cc4O)c4c(=O)[nH]c(SCc5ccccc5)nc4n3)cc2)n1` [Compound 6b, 4-{[7-(Benzylsulfanyl)-4-(2,4-dihydroxyphenyl)-5-oxo-5,6-dihydropyrimido[4,5-d]pyrimidin-2-yl]amino}-N-(4,6-dimethylpyrimidin-2-yl)benzenesulfonamide]: the melting point was more than 300 °C. Besides, the inhibition at 10 µM with OVCAR-8 was 38.7%. Further, at CDK2/CyclinA, the concentration for half-maximal inhibition (IC50) was determined as 2.8 µM. Moreover, the inhibition at 10 µM in the data set with K-562 worked out at 20.1%. Besides, the inhibition at 10 µM in the data set with IGROV1 was 30.7%. The same molecule had an IC50 in data set [1] of 5.5 µM. Also, at CDK4/CyclinD, half-maximal inhibition (IC50) was put at 2.14 µM. Further, in the data set on BT-549, the inhibition at 10 µM came out at 29.1%.

`Cc1nc(Nc2ccc(NC(=S)Nc3ccccc3)cc2)nc2nc(Nc3ccc(S(=O)(=O)O)cc3)[nH]c(=O)c12` [Compound 7h, 4-{[5-Methyl-4-oxo-7-({4-[(phenylcarbamothioyl)amino]phenyl}amino)-3,4-dihydropyrimido[4,5-d]pyrimidin-2-yl]amino}benzenesulfonic acid] came in with a melting point of more than 300 °C. Moreover, in the data set on OVCAR-8, the inhibition at 10 µM stood at 50.2%. In addition, at CDK2/CyclinA, the half-maximal inhibitory concentration (IC50) was 6 µM. Further, the inhibition at 10 µM in the data set on HOP-92 worked out at 24.3%. Besides, in the data set on HL-60(TB), the inhibition at 10 µM turned out to be 29%. Moreover, the inhibition at 10 µM with IGROV1 is 28%. The half-inhibitory concentration (IC50) in data set [1] is more than 10 µM. The inhibition at 10 µM in [2] is 50 to 70%. Moreover, in the data set with UO-31, the inhibition at 10 µM was determined as 21.1%. Moreover, at CDK4/CyclinD, the 50% inhibitory concentration (IC50) was more than 10 µM and the “IC50 CDK4/CyclinD” value is listed as “no activity”. The inhibition at 10 µM in the data set with RPMI-8226 turned out to be 52.5%. In the data set with MOLT-4, the inhibition at 10 µM was 20.8%. Besides, the inhibition at 10 µM in the data set with BT-549 is 39%.

In the case of `O=c1[nH]c(NCc2ccccc2)nc2nc(Nc3ccc(NC(=S)Nc4ccccc4)cc3)nc(-c3ccc(O)cc3O)c12` [Compound 7a, 1-(4-{[7-(Benzylamino)-4-(2,4-dihydroxyphenyl)-5-oxo-5,6-dihydropyrimido[4,5-d]pyrimidin-2-yl]amino}phenyl)-3-phenylthiourea], the melting point is more than 300 °C. The inhibition at 10 µM in the data set with A549/ATCC was found to be 58.4%. Also, the inhibition at 10 µM in the data set on EKVX was determined as 36.8%. In addition, half-maximal inhibition on CDK2/CyclinA (IC50) required 0.31 µM. Moreover, the inhibition at 10 µM in the data set on UACC-257 is 60.3%. The inhibition at 10 µM in the data set with IGROV1 worked out at 29.7%. In data set [1], this molecule gave an IC50 of more than 10 µM. Moreover, the inhibition at 10 µM in [2] was 50 to 70%. The inhibition at 10 µM in the data set with UO-31 was found to be 21.4%. For the same molecule, half-maximal inhibition against CDK4/CyclinD (IC50) required 3.33 µM. Besides, in the data set with RPMI-8226, the inhibition at 10 µM turned out to be 22.6%. The inhibition at 10 µM with MOLT-4 is 36.7%.

`O=c1[nH]c(Nc2ccc(S(=O)(=O)O)cc2)nc2nc(Nc3ccc(NC(=S)Nc4ccccc4)cc3)nc(-c3ccc(O)cc3O)c12` [Compound 7g, 4-{[5-(2,4-Dihydroxyphenyl)-4-oxo-7-({4-[(phenylcarbamothioyl)amino]phenyl}amino)-3,4-dihydropyrimido[4,5-d]pyrimidin-2-yl]amino}benzenesulfonic acid]: the melting point is more than 300 °C. On CDK2/CyclinA, this molecule had a concentration for half-maximal inhibition (IC50) of 6.5 µM. The inhibition at 10 µM with K-562 was 20.1%. Moreover, in the data set on UACC-257, the inhibition at 10 µM was determined as 32.7%. The inhibition at 10 µM in the data set with HOP-92 was determined as 29.1%. The molecule further yielded an IC50 in data set [1] of 7.3 µM. Moreover, on CDK4/CyclinD, the IC50 amounted to 5.21 µM and the “IC50 CDK4/CyclinD” value is listed as “very poor activity”. In addition, the inhibition at 10 µM in the data set on MCF7 was 33.3%.

The values above are taken from article PMC3163380, “Design, Synthesis and Biological Evaluation of Novel Pyrimido[4,5-d]pyrimidine CDK2 Inhibitors as Anti-Tumor Agents” (Scientia Pharmaceutica, 2011).
